Measurements from patent JP2009062322A, “肝実質細胞再生促進剤” (Minophagen Pharmaceutical Co Ltd, priority 2007, dated 2009).

Tested on: primary cultured hepatic parenchymal cells (初代培養肝実質細胞)
Assay: Proliferation of primary cultured rat hepatic parenchymal cells: DNA synthesis (3H-thymidine incorporation) and number of nuclei
Settings: for EC50: Rattus norvegicus; for proliferation-promoting effect: compound alone, low-density culture, 4 h, result in words

| Structure (SMILES) | EC50 [nM] | proliferation-promoting effect | proliferation-promoting effect relative to glycyrrhetinic acid (by EC50) (fold stronger than glycyrrhetinic acid (グリチルレチン酸), by EC50 value) |
| --- | --- | --- | --- |
| C[C@]1(C(=O)O)CC[C@]2(C)CC[C@]3(C)C(=CC[C@@H]4[C@@]5(C)CC[C@H](O)[C@](C)(CO)[C@@H]5CC[C@]43C)[C@@H]2C1 [化合物(12)] | 4 | 用量依存的に促進効果を示した | – |
| CC1(C)[C@@H](O)CC[C@]2(C)[C@H]3C(=O)C=C4[C@@H]5C[C@@](C)(C(=O)O)CC[C@]5(C)CC[C@@]4(C)[C@]3(C)CC[C@@H]12 [グリチルレチン酸, reference compound] | 5 | 用量依存的に促進効果を示した | – |
| CC1(C)[C@@H](O)CC[C@]2(C)[C@H]3CC=C4[C@@H]5C[C@@](C)(C(=O)O)CC[C@]5(C)CC[C@@]4(C)[C@]3(C)CC[C@@H]12 [化合物(11), 11−デオキソグリチルレチン酸] | 0.04 | 用量依存的に促進効果を示した | ~100 倍 (fold) |
